Data: US8394803B2, “Gyrase inhibitors and uses thereof” (Vertex Pharmaceuticals Incorporated, priority 2005, dated 2013)
≈ marks a conversion by molar mass, not a printed value. Read-outs that look alike come from different tables or passages of the source.

Tests used:
Haemophilus influenzae = assay: Susceptibility testing in liquid media (MIC), H. influenzae; assay type: cell-based; conditions: 35° C. overnight, read-out: H. influenzae MIC range
Description: (§1) Compounds of this invention were also tested for antimicrobial activity by susceptibility testing in liquid media. Such assays were performed within the guidelines of the latest NCCLS document governing such practices: “M7-A5 Methods for dilution Antimicrobial Susceptibility Tests for Bacteria that Grow Aerobically; Approved Standard—Fifth Edition (2000)”. Other publications such as “Antibiotics in Laboratory Medicine” (Edited by V. Lorian, Publishers Williams and Wilkins, 1996) provide essential practical techniques in laboratory antibiotic testing. Essentially, several discrete bacterial colonies of Staphylococcus aureus, Streptococcus pneumoniae, Haemophilus influenzae, or Enterococcus faecalis (3 to 7) from a freshly streaked plate were transferred to an appropriate rich broth medium such as MHB, and supplemented where appropriate for the more fastidious organisms. This was grown overnight to high density followed by a 1 or 2-thousand-fold dilution to give an inoculation density of between 5×10^5 and 5×10^6 CFU per mL. Alternatively, the freshly picked colonies can be incubated at 37° C. for about 4 to 8 hours until the culture equals or exceeds a turbidity of a 0.5 McFarland standard (approximately 1.5×10^8 cells per mL) and diluted to give the same CFU per mL as above. In a more convenient method, the inoculum was prepared using a commercially available mechanical device (the BBL PROMPT System) that involves touching five colonies directly with a wand, containing crosshatch grooves at its bottom, followed by suspension of the bacteria in an appropriate volume of saline. Dilution to the appropriate inoculum cell density was made from this cell suspension. The broth used for testing consists of MHB supplemented with 50 mg per L of Ca^2+ and 25 mg per L of Mg^2+. Standard dilution panels of control antibiotics were made and stored as in the NCCLS standard M7-A5, the dilution range typically being in the 128 μg per mL to […] (by 2-fold serial dilution). The test compounds were dissolved and diluted fresh for experimentation on the same day; the same or similar ranges of concentration as above being used. The test compounds and controls were dispensed into a multiwell plate and test bacteria added such that the final inoculation was approximately 5×10^4 CFU per well and the final volume was 100 μL. The plates were incubated at 35° C. overnight (16 to 20 hours) and checked by eye for turbidity or quantitated with a multiwell plate reader. […] Such determinations were also compared to the appropriate tables contained in the above two publications to ensure that the range of antibacterial activity is within the acceptable range for this standardized assay.
(§2) The compound numbers correspond to the compound numbers in Table 2.

Enterococcus faecalis = assay: Susceptibility testing in liquid media (MIC), E. faecalis; assay type: cell-based; conditions: 35° C. overnight, read-out: E. faecalis MIC range
Description: as §1, §2

Streptococcus pneumoniae = assay: Susceptibility testing in liquid media (MIC), S. pneumoniae; assay type: cell-based; conditions: 35° C. overnight, read-out: S. pneumoniae MIC range
Description: as §1, §2

Staphylococcus aureus = assay: Susceptibility testing in liquid media (MIC), S. aureus; assay type: cell-based; conditions: 35° C. overnight, read-out: S. aureus MIC range
Description: as §1, §2

E. coli Gyrase = E. coli Gyrase (Escherichia coli, UniProt P0AES6); assay: DNA Gyrase ATPase assay (E. coli Gyrase Ki); assay type: biochemical
Description: The ATP hydrolysis activity of DNA gyrase was measured by coupling the production of ADP through pyruvate kinase/lactate dehydrogenase to the oxidation of NADH. This method has been described previously (Tamura and Gellert, 1990, J. Biol. Chem., 265, 21342).
ATPase assays were carried out at 30° C. in buffered solutions containing 100 mM TRIS pH 7.6, 1.5 mM MgCl2, 150 mM KCl. The coupling system contains (final concentrations) 2.5 mM phosphoenol pyruvate, 200 μM nicotinamide adenine dinucleotide (NADH), 1 mM DTT, 30 ug/ml pyruvate kinase, and 10 ug/ml lactate dehydrogenase. 40 nanomolar enzyme and a DMSO solution of the inhibitor to a final concentration of 4% was added and the reaction mixture was allowed to incubate for 10 minutes at 30° C. The reaction was then started by the addition of ATP to a final concentration of 0.9 mM and the rate of NADH disappearance at 340 nanometers was measured over the course of 10 minutes. The Ki values were determined from rate versus concentration profiles.
The compound numbers correspond to the compound numbers in Table 2. Compounds having an activity designated as “A” provided a Ki inhibition value equal to or above 0.100 micromolar. Compounds having an activity designated as “B” provided a Ki inhibition value between 0.050 micromolar and 0.100 micromolar. […] The term “ND” means no data.

S. aureus TopoIV = S. aureus TopoIV (Staphylococcus aureus, UniProt P0C1S7); assay: DNA Topo IV ATPase assay (S. aureus TopoIV Ki); assay type: biochemical; conditions: 30° C., read-out: S. aureus Topo IV Ki Inhibition Ranges (Activity)
Description: DNA Topo IV ATPase Assay:
The conversion of ATP to ADP by TopoIV enzyme was coupled to the conversion of NADH to NAD+ and measured by the change in absorbance at 340 nm. Topo4 was incubated with inhibitor (4% DMSO final) in buffer for 10 minutes at 30° C. Reaction was initiated with ATP and rates were monitored continuously for 20 minutes at 30° C. on a Molecular Devices SpectraMAX plate reader. The inhibition constant, Ki, was determined from plots of rate vs. [Inhibitor] fit to the Morrison Equation for tight binding inhibitors.
S. aureus TopoIV Buffer: 100 mM Tris 7.5, 2 mM MgCl2, 200 mM K●Glutamate, 2.5 mM phosphoenol pyruvate, 0.2 mM NADH, 1 mM DTT, 4.25 μg/mL linearized DNA, 50 μg/mL BSA, 30 μg/mL pyruvate kinase, and 10 μg/mL lactate dehyrodgenase (LDH).
The compound numbers correspond to the compound numbers in Table 2. Compounds having an activity designated as “A” provided a Ki inhibition value equal to or above 0.500 micromolar. […] The term “ND” means no data.

[1] = ATPase assay, 30° C., 0.9 mM ATP, read-out: E. coli Gyrase Ki Inhibition Ranges (Activity)

Sequence of S. aureus TopoIV (P0C1S7 whole entry): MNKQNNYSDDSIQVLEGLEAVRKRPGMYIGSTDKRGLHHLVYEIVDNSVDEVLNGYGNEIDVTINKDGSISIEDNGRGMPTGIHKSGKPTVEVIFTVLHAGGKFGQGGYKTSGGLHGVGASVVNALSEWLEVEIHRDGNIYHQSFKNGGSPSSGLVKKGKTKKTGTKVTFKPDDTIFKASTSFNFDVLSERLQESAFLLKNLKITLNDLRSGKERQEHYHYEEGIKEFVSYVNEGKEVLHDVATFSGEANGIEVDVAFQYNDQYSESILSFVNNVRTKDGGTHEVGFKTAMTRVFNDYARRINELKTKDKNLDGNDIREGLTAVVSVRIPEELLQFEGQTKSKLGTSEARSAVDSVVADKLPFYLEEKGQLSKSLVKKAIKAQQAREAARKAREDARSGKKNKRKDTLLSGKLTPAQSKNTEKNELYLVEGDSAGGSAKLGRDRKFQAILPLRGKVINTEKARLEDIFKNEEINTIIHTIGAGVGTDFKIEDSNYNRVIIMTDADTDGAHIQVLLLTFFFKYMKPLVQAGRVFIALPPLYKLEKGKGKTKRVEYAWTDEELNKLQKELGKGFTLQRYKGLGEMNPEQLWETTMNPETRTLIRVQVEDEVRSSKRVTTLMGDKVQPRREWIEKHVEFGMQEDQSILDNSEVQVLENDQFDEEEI
Sequence of S. aureus TopoIV (P0C1U9 whole entry partner): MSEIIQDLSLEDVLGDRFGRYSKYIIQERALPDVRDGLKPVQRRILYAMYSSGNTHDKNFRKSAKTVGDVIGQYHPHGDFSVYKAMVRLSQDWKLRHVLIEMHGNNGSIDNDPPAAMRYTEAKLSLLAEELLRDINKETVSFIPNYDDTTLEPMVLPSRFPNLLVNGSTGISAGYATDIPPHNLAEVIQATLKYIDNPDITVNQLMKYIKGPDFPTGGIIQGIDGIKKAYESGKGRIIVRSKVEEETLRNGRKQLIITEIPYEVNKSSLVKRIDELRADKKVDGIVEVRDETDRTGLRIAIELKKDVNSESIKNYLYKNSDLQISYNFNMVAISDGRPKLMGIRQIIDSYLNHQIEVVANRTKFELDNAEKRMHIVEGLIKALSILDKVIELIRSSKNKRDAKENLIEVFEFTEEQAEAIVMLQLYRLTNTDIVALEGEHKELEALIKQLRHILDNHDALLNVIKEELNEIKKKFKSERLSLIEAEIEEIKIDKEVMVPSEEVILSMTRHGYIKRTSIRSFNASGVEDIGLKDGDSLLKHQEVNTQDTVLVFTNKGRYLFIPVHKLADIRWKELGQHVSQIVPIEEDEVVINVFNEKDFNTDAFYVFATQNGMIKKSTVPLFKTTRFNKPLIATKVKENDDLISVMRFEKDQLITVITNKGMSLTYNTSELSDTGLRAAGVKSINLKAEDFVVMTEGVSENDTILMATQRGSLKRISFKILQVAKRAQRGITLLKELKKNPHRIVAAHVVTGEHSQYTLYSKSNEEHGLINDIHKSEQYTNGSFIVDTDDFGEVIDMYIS

Compound | MIC (Haemophilus influenzae) [µg/mL] | MIC (Enterococcus faecalis) [µg/mL] | MIC (Streptococcus pneumoniae) [µg/mL] | MIC (Staphylococcus aureus) [µg/mL] | Ki (E. coli Gyrase; [1]) [nM] | Ki (S. aureus TopoIV) [nM] | Ki (E. coli Gyrase) [nM]
CCNC(=O)Nc1nc2cc(C(=O)NC)cc(-c3ncccc3F)c2[nH]1 [Compound I-3] | > 7 | < 1 | < 1 | > 7 | < 50 |  | 
CCNC(=O)Nc1nc2cc(OC)cc(-n3cccn3)c2[nH]1 [Compound I-1] | > 7 | > 7 | 1 to 7 (≈ 3.33 to 23.3 µM) | > 7 | 50 to 100 |  | 
CCNC(=O)Nc1nc2cc(C(=O)O)cc(-c3ncccc3F)c2[nH]1 [Compound I-2] | > 7 | > 7 | > 7 | > 7 | > 100 |  | 
CCNC(=O)Nc1nc2cc(C(C)CC(=O)NC)cc(-c3ncccc3F)c2[nH]1 (centres unmarked) [Compound I-9] | > 7 | > 7 | 1 to 7 (≈ 2.51 to 17.6 µM) | > 7 |  | ≥ 500 | > 100
CCNC(=O)Nc1nc2cc(C#N)c(F)c(-n3cccn3)c2[nH]1 [Compound I-16] | > 7 | > 7 | 1 to 7 (≈ 3.19 to 22.3 µM) | > 7 |  | ≥ 500 | < 50
CCNC(=O)Nc1nc2cc(C(=O)OC)cc(-c3ncccc3F)c2[nH]1 [Compound I-7] | > 7 | 1 to 7 (≈ 2.8 to 19.6 µM) | 1 to 7 (≈ 2.8 to 19.6 µM) | > 7 | < 50 |  | 
CCNC(=O)Nc1nc2cc(/C(C)=C/C(=O)NC)cc(-c3ncccc3F)c2[nH]1 [Compound I-10] | > 7 | < 1 | < 1 | > 7 |  | ≤ 250 | < 50
CCNC(=O)Nc1nc2cc(F)cc(-c3ncccn3)c2[nH]1 [Compound I-15] | > 7 | 1 to 7 (≈ 3.33 to 23.3 µM) | 1 to 7 (≈ 3.33 to 23.3 µM) | > 7 |  | ≥ 500 | < 50
CCNC(=O)Nc1nc2cc(NCc3ccccn3)cc(-c3ncccn3)c2[nH]1 [Compound I-14] | > 7 | 1 to 7 (≈ 2.57 to 18 µM) | < 1 | > 7 |  | ≥ 500 | 50 to 100
CCNC(=O)Nc1nc2cc(N3CCN(C(C)=O)CC3)cc(-c3ncccn3)c2[nH]1 [Compound I-5] | > 7 | 1 to 7 (≈ 2.45 to 17.1 µM) | < 1 | > 7 | < 50 |  | 
CCNC(=O)Nc1nc2cc(/C(C)=C/C(=O)N(C)C)cc(-c3ncccc3F)c2[nH]1 [Compound I-8] | > 7 | 1 to 7 (≈ 2.44 to 17.1 µM) | < 1 | > 7 |  | ≤ 250 | 50 to 100
CCNC(=O)Nc1nc2cc(N3CCCC3=O)cc(-c3ncccn3)c2[nH]1 [Compound I-6] | > 7 | 1 to 7 (≈ 2.74 to 19.2 µM) | < 1 | > 7 | < 50 |  | 
CCNC(=O)Nc1nc2cc(C3=CC(=O)N(Cc4ccccc4)CC3)cc(-n3cccn3)c2[nH]1 [Compound I-18] | > 7 | < 1 | < 1 | < 1 |  | ≤ 250 | < 50
CCNC(=O)Nc1nc2cc(C3CCN(C)C(=O)C3)cc(-c3ncccc3F)c2[nH]1 (centres unmarked) [Compound I-13] | > 7 | < 1 | < 1 | 1 to 7 (≈ 2.44 to 17.1 µM) |  | ≤ 250 | < 50
CCNC(=O)Nc1nc2cc(C(C)CC(=O)N(C)C)cc(-c3ncccc3F)c2[nH]1 (centres unmarked) [Compound I-19] | > 7 | 1 to 7 (≈ 2.42 to 17 µM) | 1 to 7 (≈ 2.42 to 17 µM) | > 7 |  | ≥ 500 | > 100
CCNC(=O)Nc1nc2cc(C3CCN(Cc4ccccc4)C(=O)C3)cc(-n3cccn3)c2[nH]1 (centres unmarked) [Compound I-17] | > 7 | 1 to 7 (≈ 2.19 to 15.3 µM) | < 1 | 1 to 7 (≈ 2.19 to 15.3 µM) |  | ≤ 250 | > 100
CCNC(=O)Nc1nc2cc(C#N)cc(-c3ncccc3F)c2[nH]1 [Compound I-4] | > 7 | 1 to 7 (≈ 3.08 to 21.6 µM) | < 1 | > 7 | 50 to 100 |  | 
